Two molecules from patent US12433867B2, “Pharmaceutical composition comprising FLT3 inhibitor and hypomethylating agent for treating acute myeloid leukemia” (HANMI PHARM. CO., LTD, priority 2019, dated 2025) can be followed below.

As usually defined, the GI50 is the concentration giving 50% growth inhibition.

The test system of assay [1] is MOLM-13 (DSMZ no. ACC 554) cell line. The experiment in a line: MOLM-13 cell growth inhibition (CellTiter-Glo), Compound A alone or combined with azacitidine. The class given is cell-based. The protocol: By examining growth inhibition of an MOLM-13 (DSMZ no. ACC 554) cell line which was treated with, in combination, an FLT3 inhibitor, 5-chloro-N-(3-cyclopropyl-5-(((3R,5S)-3,5-dimethylpiperazin-1-yl)methyl)phenyl)-4-(6-methyl-1H-indol-3-yl)pyrimidin-2-amine (hereinafter, Compound A) and a hypomethylating agent (HMA), 4-amino-1-β-D-ribofuranosyl-1,3,5-triazin-2(1H)-one (hereinafter, azacitidine), an effect of combined treatment of the two drugs was tested. The MOLM-13 cell line cultured in an RPMI 1640 culture medium (RPMI=Rosewell Parker Memory Institute) supplemented with 20% FBS was inoculated at a density of 2×10^4 cells per well in a 96-well plate, and Compound A was subjected to ½ serial dilution at predetermined concentrations (e.g., 10 nM to 0.078 nM) using the same culture medium. […] To measure cell viability, a CellTiter-Glo® (CTG) assay was performed, and for result analysis, 50% cell growth inhibition (GI50) was calculated using a GraphPad Prism software.
(ATP-based viability assays read luminescence as a measure of living cells.)

The test system of assay [2] is Ba/F3 cells expressed in an FLT3 ITD/F691L xenografted mouse model. In words: In vivo study, Ba/F3 FLT3 ITD/F691L xenografted mouse model.
The subject of assay [3] is MOLM-13-Luc2 cell line. The experiment in a line: Mouse model xenografted with MOLM-13-Luc2 cell line, survival. The class given is in vivo. The conditions noted are these: NOG mouse, MOLM-13-Luc2 i.v.; Compound A 10 mg/kg/day oral once a day; azacitidine 3 mg/kg/day i.p. twice a week. The protocol:
A comparison of Compound A and azacitidine or an efficacy test of combination thereof was conducted in a mouse model xenografted with a MOLM-13-Luc2 cell line which is a MOLM-13 cell line genetically modified to express luciferase.
The MOLM-13-Luc2 cell line was injected to a tail vein of NOG mouse at 5×10^6 cells/0.1 mL/mouse, and allowed to grow.
Bioluminescence images of MOLM-13-Luc2 cells were measured using a Lumina III IVIS imaging system (PerkinElmer) and quantified using a Living image software (PerkinElmer). When measured, D-luciferin (D-luciferin) was intraperitoneally injected to mice, and imaging was were performed under anesthesia using isoflurane. Images were measured for a first group separation during the experiment, and then measured on a specific day according to the purpose of the test.
A control group orally received a DMSO/PEG400/DW (ratio=0.5/2/7.5, v/v) mixed solution once a day, and a Compound A group was orally administered once a day at a dose of 10 mg/kg/day. An azacitidine group which is a hypomethylating agent (HMA) group was intraperitoneally administered at a dose of 3 mg/kg/day twice a week (on day 1 and day 4 of the week). A combination group was orally administered with Compound A at a dose of 10 mg/kg/day once a day, and azacitidine was intraperitoneally administered at a dose of 3 mg/kg/day twice a week (on day 1 and day 4 every week). Each group received individual drugs until all subjects in each group died.
The Y-axis represents a percentage (%) of surviving mice (survival rate) in each experimental group, and the X-axis represents the number of days of administration.

The subject of assay [4] is Ba/F3 cells expressed in an FLT3 ITD/D835Y xenografted mouse model. In words: In vivo study, Ba/F3 FLT3 ITD/D835Y xenografted mouse model.

As for `Cc1ccc2c(-c3nc(Nc4cc(CN5C[C@@H](C)N[C@@H](C)C5)cc(C5CC5)c4)ncc3Cl)c[nH]c2c1` [Compound A, 5-chloro-N-(3-cyclopropyl-5-(((3R,5S)-3,5-dimethylpiperazin-1-yl)methyl)phenyl)-4-(6-methyl-1H-indol-3-yl)pyrimidin-2-amine], in assay [1] (Homo sapiens, 72 h, MOLM-13, incubation 3 days, CTG assay, combination with azacitidine at 800 nM, GI50 as Compound A concentration), the GI50 turned out to be 2.5 nM. Moreover, the “therapeutic effect / overcoming resistance caused by FLT3 mutations” value in assay [2] and in assay [4] was “shows therapeutic effects” in each case. In addition, the median survival period in assay [3] came out at 17 days. Further, in assay [3], the overall survival period worked out at 20 days.

Turning to `Nc1ncn([C@@H]2O[C@H](CO)[C@@H](O)[C@H]2O)c(=O)n1` [Azacitidine, 4-amino-1-β-D-ribofuranosyl-1,3,5-triazin-2(1H)-one, reference compound], the “GI40 (concentration inhibiting MOLM-13 cell growth by about 40%)” value in assay [1] (MOLM-13 cells) amounted to 800 nM. In assay [3], the median survival period was found to be 16 days and the overall survival period turned out to be 18 days.
